From patent EP0076478A1, “Linear kinetic determination of bicarbonate in body fluids” (BOEHRINGER MANNHEIM CORPORATION, priority 1981, dated 1983)

How the values were obtained:
Type in all cases: biochemical
MDH (porcine heart) = target: T1, MDH (porcine heart) (Sus scrofa, UniProt P00346); assay: Separate enzyme assay of MDH in the presence of varying amounts of oxamate
T1 construct: purchased Boehringer Mannheim Corporation, Indianapolis, Indiana
T1 sequence (P00346 25-338): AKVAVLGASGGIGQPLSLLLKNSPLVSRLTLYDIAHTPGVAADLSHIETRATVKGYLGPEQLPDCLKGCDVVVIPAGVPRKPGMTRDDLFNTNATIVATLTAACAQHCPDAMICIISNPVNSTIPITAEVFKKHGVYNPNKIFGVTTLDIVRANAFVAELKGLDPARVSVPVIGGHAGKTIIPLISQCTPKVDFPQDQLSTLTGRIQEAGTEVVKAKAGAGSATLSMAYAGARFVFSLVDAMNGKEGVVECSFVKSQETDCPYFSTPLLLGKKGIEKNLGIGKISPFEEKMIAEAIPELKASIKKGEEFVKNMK

PEPC (wheat germ) = assay: Separate enzyme assay of PEPC in the presence of varying amounts of oxamate; conditions: for PEPC % Activity: average of three replicates
LDH = assay: Inhibition of reaction III (oxidation of NADH by pyruvate, catalysed by serum LDH) by oxamate; conditions: for NADH oxidized: 10 minutes, 340 nm, 37°C
Protocol: Using the same materials and methodology of the end-point determination described in Example III, the effectiveness of oxamate as an inhibitor of reaction III was determined. First, reaction III was followed by […] of oxamate to serum.with normal and supranormal LDH activities up to 2000 U/1 (one U/1 is an enzyme activity unit which catalyzes the transformation of one micromole per liter of pyruvate per minute at 37°C). In order to magnify the spectrophotometric signal, the sample volume was increased from 7.5 microliters to 50 microliters. The oxidation of NADH was followed for 10 minutes at 340 nm and 37°C, and the concentration of NADH oxidized was calculated from the change in absorbance over the 10 minute period.

[1] = concentrations of oxamate up to 40 mmol/l

NC(=O)C(=O)[O-].[Na+] [oxamate, sodium oxamate]
activity at 5000 µM (MDH (porcine heart); Oxamate 5 mmol/l, average of three replicates): 102 ± 2% | activity at 10000 µM (MDH (porcine heart); Oxamate 10 mmol/l, average of three replicates): 102 ± 2% | activity at 20000 µM (MDH (porcine heart); Oxamate 20 mmol/l, average of three replicates): 99 ± 1% | activity at 40000 µM (MDH (porcine heart); Oxamate 40 mmol/l, average of three replicates): 98 ± 5% | activity at 80000 µM (MDH (porcine heart); Oxamate 80 mmol/l, average of three replicates): 92 ± 2% | effect on MDH (MDH (porcine heart); [1]): no effect | effect on MDH (MDH (porcine heart); varying amounts of oxamate): no significant effect | PEPC % Activity (PEPC (wheat germ); Oxamate 5 mmol/l): 102 ± 2% | PEPC % Activity (PEPC (wheat germ); Oxamate 10 mmol/l): 95 ± 11% | PEPC % Activity (PEPC (wheat germ); Oxamate 20 mmol/l): 103 ± 1% | PEPC % Activity (PEPC (wheat germ); Oxamate 40 mmol/l): 99 ± 2% | PEPC % Activity (PEPC (wheat germ); Oxamate 80 mmol/l): 86 ± 4% | effect on PEPC (PEPC (wheat germ); [1]): no effect | effect on PEPC (PEPC (wheat germ); varying amounts of oxamate): no significant effect | NADH oxidized (LDH; 2.5 mmol/l oxamate, serum LDH 282 U/l, 2 mmol/l pyruvate added): 0 µmol/L | NADH oxidized (LDH; 2.5 mmol/l oxamate, serum LDH 334 U/l, 2 mmol/l pyruvate added): 1.3 µmol/L | NADH oxidized (LDH; 2.5 mmol/l oxamate, serum LDH 340 U/l, 2 mmol/l pyruvate added): 1.3 µmol/L | NADH oxidized (LDH; 2.5 mmol/l oxamate, serum LDH 402 U/l, 2 mmol/l pyruvate added): 0 µmol/L | NADH oxidized (LDH; 2.5 mmol/l oxamate, serum LDH 508 U/l, 2 mmol/l pyruvate added): 3.5 µmol/L | NADH oxidized (LDH; 2.5 mmol/l oxamate, serum LDH 600 U/l, 2 mmol/l pyruvate added): 2.6 µmol/L | NADH oxidized (LDH; 2.5 mmol/l oxamate, serum LDH 1200 U/l, 2 mmol/l pyruvate added): 7.7 µmol/L | NADH oxidized (LDH; 2.5 mmol/l oxamate, serum LDH 1470 U/l, sample not spiked with pyruvate): 1.0 µmol/L | NADH oxidized (LDH; 2.5 mmol/l oxamate, serum LDH normal (average of 10 normal sera), 2 mmol/l pyruvate added): 1.4 µmol/L | NADH oxidized (LDH; 5 mmol/l oxamate, serum LDH 282 U/l, 2 mmol/l pyruvate added): 0 µmol/L | NADH oxidized (LDH; 5 mmol/l oxamate, serum LDH 334 U/l, 2 mmol/l pyruvate added): 0.3 µmol/L | NADH oxidized (LDH; 5 mmol/l oxamate, serum LDH 340 U/l, 2 mmol/l pyruvate added): 0 µmol/L | NADH oxidized (LDH; 5 mmol/l oxamate, serum LDH 402 U/l, 2 mmol/l pyruvate added): 0 µmol/L | NADH oxidized (LDH; 5 mmol/l oxamate, serum LDH 508 U/l, 2 mmol/l pyruvate added): 0.3 µmol/L | NADH oxidized (LDH; 5 mmol/l oxamate, serum LDH 600 U/l, 2 mmol/l pyruvate added): 0.2 µmol/L | NADH oxidized (LDH; 5 mmol/l oxamate, serum LDH 1200 U/l, 2 mmol/l pyruvate added): 0.9 µmol/L | NADH oxidized (LDH; 5 mmol/l oxamate, serum LDH 1470 U/l, sample not spiked with pyruvate): 0 µmol/L | NADH oxidized (LDH; 5 mmol/l oxamate, serum LDH normal (average of 10 normal sera), 2 mmol/l pyruvate added): 0.5 µmol/L | NADH oxidized (LDH; 10 mmol/l oxamate, serum LDH 282 U/l, 2 mmol/l pyruvate added): 0 µmol/L | NADH oxidized (LDH; 10 mmol/l oxamate, serum LDH 334 U/l, 2 mmol/l pyruvate added): 0 µmol/L | NADH oxidized (LDH; 10 mmol/l oxamate, serum LDH 340 U/l, 2 mmol/l pyruvate added): 0 µmol/L | NADH oxidized (LDH; 10 mmol/l oxamate, serum LDH 402 U/l, 2 mmol/l pyruvate added): 0 µmol/L | NADH oxidized (LDH; 10 mmol/l oxamate, serum LDH 508 U/l, 2 mmol/l pyruvate added): 0.1 µmol/L | NADH oxidized (LDH; 10 mmol/l oxamate, serum LDH 600 U/l, 2 mmol/l pyruvate added): 0 µmol/L | NADH oxidized (LDH; 10 mmol/l oxamate, serum LDH 1200 U/l, 2 mmol/l pyruvate added): 0.3 µmol/L | NADH oxidized (LDH; 10 mmol/l oxamate, serum LDH 1470 U/l, sample not spiked with pyruvate): 0 µmol/L | NADH oxidized (LDH; 10 mmol/l oxamate, serum LDH 2000 U/l, 2 mmol/l pyruvate added): 0 µmol/L | NADH oxidized (LDH; 10 mmol/l oxamate, serum LDH normal (average of 10 normal sera), 2 mmol/l pyruvate added): 0.3 µmol/L | NADH oxidized (LDH; 20 mmol/l oxamate, serum LDH 282 U/l, 2 mmol/l pyruvate added): 0 µmol/L | NADH oxidized (LDH; 20 mmol/l oxamate, serum LDH 334 U/l, 2 mmol/l pyruvate added): 0 µmol/L | NADH oxidized (LDH; 20 mmol/l oxamate, serum LDH 340 U/l, 2 mmol/l pyruvate added): 0 µmol/L | NADH oxidized (LDH; 20 mmol/l oxamate, serum LDH 402 U/l, 2 mmol/l pyruvate added): 0 µmol/L | NADH oxidized (LDH; 20 mmol/l oxamate, serum LDH 508 U/l, 2 mmol/l pyruvate added): 0 µmol/L | NADH oxidized (LDH; 20 mmol/l oxamate, serum LDH 600 U/l, 2 mmol/l pyruvate added): 0 µmol/L | NADH oxidized (LDH; 20 mmol/l oxamate, serum LDH 1200 U/l, 2 mmol/l pyruvate added): 0 µmol/L | NADH oxidized (LDH; 20 mmol/l oxamate, serum LDH 1470 U/l, sample not spiked with pyruvate): 0 µmol/L | NADH oxidized (LDH; 20 mmol/l oxamate, serum LDH 2000 U/l, 2 mmol/l pyruvate added): 0 µmol/L | NADH oxidized (LDH; 20 mmol/l oxamate, serum LDH normal (average of 10 normal sera), 2 mmol/l pyruvate added): 0 µmol/L | LDH activity (LDH; oxamate concentration of 10-20 mmol/l): completely inhibited
